Legend:
Assay in all cases: Post-emergence test experiment (Table 3, 1000 g/ha)
Type in all cases: in vivo
Conditions in all cases: post-emergence spray, after 3 weeks, fresh weight inhibition
[1] = system: Abutilon theophrasti
Method in brief: (§1)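 Weed seeds sown in soil-filled pots in greenhouse, sprayed at 2-3 leaf stage (2 weeks after sowing) with compound in acetone/tween-80 plus methyl oleate emulsible concentrate (1.5 L/ha) diluted in water. Fresh-weight growth inhibition scored after 3 weeks on 0-5 scale (5: >85%, 0: <5%).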

[2] = system: Digitaria sanguinalis
Method in brief: as §1

[3] = system: Galium spurium
Method in brief: as §1

[4] = system: Leptochloa chinensis
Method in brief: as §1

[5] = system: Monochoria vaginalis
Method in brief: as §1

[6] = system: Setaria viridis
Method in brief: as §1

SMILES	Activity level (growth inhibition rate) Abutilon theophrasti [1]	Activity level (growth inhibition rate) Digitaria sanguinalis [2]	Activity level (growth inhibition rate) Galium spurium [3]	Activity level (growth inhibition rate) Leptochloa chinensis [4]	Activity level (growth inhibition rate) Monochoria Vaginalis [5]	Activity level (growth inhibition rate) Setaria viridis [6]
CC(C)CCCCCSC(=O)C(C)Oc1nc(F)c(Cl)c(N)c1Cl (stereo not drawn) [Compound 136]	5 (Level 5: the growth inhibition rate is greater than 85%)	5 (Level 5: the growth inhibition rate is greater than 85%)	5 (Level 5: the growth inhibition rate is greater than 85%)	5 (Level 5: the growth inhibition rate is greater than 85%)	5 (Level 5: the growth inhibition rate is greater than 85%)	5 (Level 5: the growth inhibition rate is greater than 85%)
C=CCSC(=O)C(C)Oc1nc(F)c(Cl)c(N)c1Cl (stereo not drawn) [Compound 89]	5 (Level 5: the growth inhibition rate is greater than 85%)	5 (Level 5: the growth inhibition rate is greater than 85%)	5 (Level 5: the growth inhibition rate is greater than 85%)	5 (Level 5: the growth inhibition rate is greater than 85%)	5 (Level 5: the growth inhibition rate is greater than 85%)	5 (Level 5: the growth inhibition rate is greater than 85%)
CC(Oc1nc(F)c(Cl)c(N)c1Cl)C(=O)Sc1cccn1C (stereo not drawn) [Compound 122]	5 (Level 5: the growth inhibition rate is greater than 85%)	5 (Level 5: the growth inhibition rate is greater than 85%)	5 (Level 5: the growth inhibition rate is greater than 85%)	5 (Level 5: the growth inhibition rate is greater than 85%)	5 (Level 5: the growth inhibition rate is greater than 85%)	5 (Level 5: the growth inhibition rate is greater than 85%)
CC(Oc1nc(F)c(Cl)c(N)c1Cl)C(=O)Sc1cccnc1 (stereo not drawn) [Compound 115]	5 (Level 5: the growth inhibition rate is greater than 85%)	5 (Level 5: the growth inhibition rate is greater than 85%)	5 (Level 5: the growth inhibition rate is greater than 85%)	5 (Level 5: the growth inhibition rate is greater than 85%)	5 (Level 5: the growth inhibition rate is greater than 85%)	5 (Level 5: the growth inhibition rate is greater than 85%)
CCCCCCCCCSC(=O)C(C)Oc1nc(F)c(Cl)c(N)c1Cl (stereo not drawn) [Compound 140]	5 (Level 5: the growth inhibition rate is greater than 85%)	5 (Level 5: the growth inhibition rate is greater than 85%)	5 (Level 5: the growth inhibition rate is greater than 85%)	5 (Level 5: the growth inhibition rate is greater than 85%)	5 (Level 5: the growth inhibition rate is greater than 85%)	5 (Level 5: the growth inhibition rate is greater than 85%)
CC(Oc1nc(F)c(Cl)c(N)c1Cl)C(=O)SC1CC1 (stereo not drawn) [Compound 81]	5 (Level 5: the growth inhibition rate is greater than 85%)	5 (Level 5: the growth inhibition rate is greater than 85%)	5 (Level 5: the growth inhibition rate is greater than 85%)	5 (Level 5: the growth inhibition rate is greater than 85%)	5 (Level 5: the growth inhibition rate is greater than 85%)	5 (Level 5: the growth inhibition rate is greater than 85%)
CCC(C)(C)SC(=O)C(C)Oc1nc(F)c(Cl)c(N)c1Cl (stereo not drawn) [Compound 149]	5 (Level 5: the growth inhibition rate is greater than 85%)	5 (Level 5: the growth inhibition rate is greater than 85%)	5 (Level 5: the growth inhibition rate is greater than 85%)	5 (Level 5: the growth inhibition rate is greater than 85%)	5 (Level 5: the growth inhibition rate is greater than 85%)	5 (Level 5: the growth inhibition rate is greater than 85%)
CC(Oc1nc(F)c(Cl)c(N)c1Cl)C(=O)Sc1cccs1 (stereo not drawn) [Compound 121]	5 (Level 5: the growth inhibition rate is greater than 85%)	5 (Level 5: the growth inhibition rate is greater than 85%)	5 (Level 5: the growth inhibition rate is greater than 85%)	5 (Level 5: the growth inhibition rate is greater than 85%)	5 (Level 5: the growth inhibition rate is greater than 85%)	5 (Level 5: the growth inhibition rate is greater than 85%)
COC(=O)CSC(=O)C(C)Oc1nc(F)c(Cl)c(N)c1Cl (stereo not drawn) [Compound 93]	5 (Level 5: the growth inhibition rate is greater than 85%)	5 (Level 5: the growth inhibition rate is greater than 85%)	5 (Level 5: the growth inhibition rate is greater than 85%)	5 (Level 5: the growth inhibition rate is greater than 85%)	5 (Level 5: the growth inhibition rate is greater than 85%)	5 (Level 5: the growth inhibition rate is greater than 85%)
CC(C)=NOCCSC(=O)C(C)Oc1nc(C)c(Cl)c(N)c1Cl (stereo not drawn) [Compound 5]	5 (Level 5: the growth inhibition rate is greater than 85%)	5 (Level 5: the growth inhibition rate is greater than 85%)	5 (Level 5: the growth inhibition rate is greater than 85%)	5 (Level 5: the growth inhibition rate is greater than 85%)	5 (Level 5: the growth inhibition rate is greater than 85%)	5 (Level 5: the growth inhibition rate is greater than 85%)
CCCCCSC(=O)C(C)Oc1nc(F)c(Cl)c(N)c1Cl (stereo not drawn) [Compound 71]	5 (Level 5: the growth inhibition rate is greater than 85%)	5 (Level 5: the growth inhibition rate is greater than 85%)	5 (Level 5: the growth inhibition rate is greater than 85%)	5 (Level 5: the growth inhibition rate is greater than 85%)	5 (Level 5: the growth inhibition rate is greater than 85%)	5 (Level 5: the growth inhibition rate is greater than 85%)
CC(Oc1nc(F)c(Cl)c(N)c1Cl)C(=O)SC1CCCO1 (stereo not drawn) [Compound 106]	5 (Level 5: the growth inhibition rate is greater than 85%)	5 (Level 5: the growth inhibition rate is greater than 85%)	5 (Level 5: the growth inhibition rate is greater than 85%)	5 (Level 5: the growth inhibition rate is greater than 85%)	5 (Level 5: the growth inhibition rate is greater than 85%)	5 (Level 5: the growth inhibition rate is greater than 85%)
COCCSC(=O)C(C)Oc1nc(F)c(Cl)c(N)c1Cl (stereo not drawn) [Compound 85]	5 (Level 5: the growth inhibition rate is greater than 85%)	5 (Level 5: the growth inhibition rate is greater than 85%)	5 (Level 5: the growth inhibition rate is greater than 85%)	5 (Level 5: the growth inhibition rate is greater than 85%)	5 (Level 5: the growth inhibition rate is greater than 85%)	5 (Level 5: the growth inhibition rate is greater than 85%)
CSC(=O)C(C)Oc1nc(F)c(Cl)c(N)c1C1CC1 (stereo not drawn) [Compound 22]	5 (Level 5: the growth inhibition rate is greater than 85%)	5 (Level 5: the growth inhibition rate is greater than 85%)	5 (Level 5: the growth inhibition rate is greater than 85%)	5 (Level 5: the growth inhibition rate is greater than 85%)	5 (Level 5: the growth inhibition rate is greater than 85%)	5 (Level 5: the growth inhibition rate is greater than 85%)

Source: patent US12391648B2, “Pyridyloxy thioester derivative and preparation method therefor, herbicidal composition, and application” (Qingdao Kingagroot Chemical Compound Co., Ltd., priority 2018, dated 2025)
